According to ChEMBL document CHEMBL5365431 (J Med Chem, 2023):
Activity calls are given as the source filed them. No cut-off for these calls is given here.

Experiments:
[1] = Clearance in Sprague-Dawley rat at 5 mg/kg, iv and measured upto 24 hrs; type: ADME, organism-based; settings: in vivo
[2] = Antitumor activity against human Olaparib-resistant MDA-MB-436 cells xenografted in BALB/c mouse assessed as tumor growth inhibition by measuring T/C ratio at 25 mg/kg,po QD for 27 days relative to control; type: functional; set-up: scale not given: the % may be the effect or the level left; settings: time 27 day
[3] = target: Poly [ADP-ribose] polymerase 1 (Homo sapiens, UniProt P09874); experiment: Inhibition of PARP1 (unknown origin) using histone as substrate by ELISA
[4] = Antiproliferative activity against human Olaparib-resistant U-251 cells assessed as cell proliferation inhibition incubated for 7 days by SRB assay; type: functional, cell-based
CAPAN-1 [5] = experiment: Antiproliferative activity against human CAPAN-1 cells assessed as cell proliferation inhibition incubated for 7 days by SRB assay; type: functional, cell-based
[6] = Antiproliferative activity against human Olaparib-resistant CAPAN-1 cells assessed as cell proliferation inhibition incubated for 7 days by SRB assay; type: functional, cell-based
CAPAN-1 [7] = experiment: Antiproliferative activity against human Talazoparib-resistant CAPAN-1 cells assessed as cell proliferation inhibition incubated for 7 days by SRB assay; type: functional, cell-based
[8] = Stabilization of human His-tagged PARP1-DNA complex assessed as increase in fluorescence signal incubated for 60 mins using NAD+ as substrate by DSB fluorescence polarization assay
[9] = target: Poly [ADP-ribose] polymerase 2 (Homo sapiens, UniProt Q9UGN5); experiment: Inhibition of PARP2 (unknown origin) using histone as substrate by ELISA
[10] = target: Protein mono-ADP-ribosyltransferase PARP3 (Homo sapiens, UniProt Q9Y6F1); experiment: Inhibition of PARP3 (unknown origin) using biotinylated NAD+ as substrate by luminescence assay
[11] = target: Protein mono-ADP-ribosyltransferase PARP4 (Homo sapiens, UniProt Q9UKK3); experiment: Inhibition of PARP4 (unknown origin) using biotinylated NAD+ as substrate by luminescence assay
[12] = target: Poly [ADP-ribose] polymerase tankyrase-2 (Homo sapiens, UniProt Q9H2K2); experiment: Inhibition of PARP5B (unknown origin) using biotinylated NAD+ as substrate by luminescence assay
[13] = target: Protein mono-ADP-ribosyltransferase PARP6 (Homo sapiens, UniProt Q2NL67); experiment: Inhibition of PARP6 (unknown origin) using biotinylated NAD+ as substrate by luminescence assay
[14] = target: Protein mono-ADP-ribosyltransferase TIPARP (Homo sapiens, UniProt Q7Z3E1); experiment: Inhibition of PARP7 (unknown origin) using biotinylated NAD+ as substrate by luminescence assay
[15] = target: Protein mono-ADP-ribosyltransferase PARP10 (Homo sapiens, UniProt Q53GL7); experiment: Inhibition of PARP10 (unknown origin) using biotinylated NAD+ as substrate by luminescence assay
[16] = target: Protein mono-ADP-ribosyltransferase PARP11 (Homo sapiens, UniProt Q9NR21); experiment: Inhibition of PARP11 (unknown origin) using biotinylated NAD+ as substrate by luminescence assay
[17] = target: Protein mono-ADP-ribosyltransferase PARP12 (Homo sapiens, UniProt Q9H0J9); experiment: Inhibition of PARP12 (unknown origin) using biotinylated NAD+ as substrate by luminescence assay
[18] = target: Protein mono-ADP-ribosyltransferase PARP14 (Homo sapiens, UniProt Q460N5); experiment: Inhibition of PARP14 (unknown origin) using biotinylated NAD+ as substrate by luminescence assay
[19] = target: Protein mono-ADP-ribosyltransferase PARP15 (Homo sapiens, UniProt Q460N3); experiment: Inhibition of PARP15 (unknown origin) using biotinylated NAD+ as substrate by luminescence assay
HCC1937 = experiment: Antiproliferative activity against HR-deficient human HCC1937 cells harboring BRCA1 mutant assessed as cell proliferation inhibition incubated for 7 days by SRB assay; type: functional, cell-based
HCT-15 = experiment: Antiproliferative activity against HR-deficient human HCT-15 cells harboring BRCA2 mutant assessed as cell proliferation inhibition incubated for 7 days by SRB assay; type: functional, cell-based
MDA-MB-436 = experiment: Antiproliferative activity against HR-deficient human MDA-MB-436 cells harboring BRCA1 mutant assessed as cell proliferation inhibition incubated for 7 days by SRB assay; type: functional, cell-based
[20] = Antiproliferative activity against HR-deficient human UWB1289 cells harboring BRCA1 mutant assessed as cell proliferation inhibition incubated for 7 days by SRB assay; type: functional, cell-based
[21] = Antiproliferative activity against human UWB1289 cells harboring wild type BRCA1 assessed as cell proliferation inhibition incubated for 7 days by SRB assay; type: functional, cell-based
[22] = Antiproliferative activity against Chinese hamster V-C8 cells harboring BRCA2 mutant assessed as cell proliferation inhibition incubated for 7 days by SRB assay; type: functional, cell-based; settings: Cricetulus griseus
V79 = experiment: Antiproliferative activity against Chinese hamster V79 cells harboring wild type BRCA2 assessed as cell proliferation inhibition incubated for 7 days by SRB assay; type: functional, cell-based; settings: Cricetulus griseus
IMR-90 = experiment: Antiproliferative activity against human IMR-90 cells assessed as cell proliferation inhibition incubated for 7 days by SRB assay; type: functional, cell-based
WI-38 = experiment: Antiproliferative activity against human WI-38 cells assessed as cell proliferation inhibition incubated for 7 days by SRB assay; type: functional, cell-based
[23] = Selectivity index, ratio of IC50 for antiproliferative activity against human UWB1289 cells harboring wild type BRCA1 to IC50 for antiproliferative activity against HR-deficient human UWB1289 cells harboring BRCA1 mutant; type: functional
[24] = Selectivity index, ratio of IC50 for antiproliferative activity against Chinese hamster V79 cells harboring wild type BRCA2 to IC50 for antiproliferative activity against Chinese hamster V-C8 cells harboring BRCA2 mutant; type: functional, Cricetulus griseus
[25] = Antiproliferative activity against human Olaparib-resistant MDA-MB-436 cells assessed as cell proliferation inhibition incubated for 7 days by CCK-8 assay; type: functional, cell-based
[26] = Antiproliferative activity against human Talazoparib-resistant MDA-MB-436 cells assessed as cell proliferation inhibition incubated for 7 days by CCK-8 assay; type: functional, cell-based, Talazoparib-resistant MDA-MB-436 cell
U-251 = experiment: Antiproliferative activity against human Talazoparib-resistant U-251 cells assessed as cell proliferation inhibition incubated for 7 days by SRB assay; type: functional, cell-based
[27] = Selectivity index, ratio of IC50 for antiproliferative activity against human PARP1 knockout Talazoparib-resistant CAPAN-1 cells to IC50 for antiproliferative activity against human Talazoparib-resistant CAPAN-1 cells; type: functional
U2OS [28] = experiment: Inhibition of homologous recombination repair activity in human U2OS cells expressing direct repeat-GFP reporter gene transfected with pCBA-ISceI plasmid at 1 uM incubated for 48 hrs by flow cytometry; type: functional
U2OS [29] = experiment: Inhibition of homologous recombination repair activity in human PARP1 knockout U2OS cells expressing direct repeat-GFP reporter gene transfected with pCBA-ISceI plasmid at 1 uM incubated for 48 hrs by flow cytometry; type: functional
[30] = Half life in Sprague-Dawley rat at 5 mg/kg, iv and measured upto 24 hrs; type: ADME, organism-based; settings: in vivo
[31] = Antitumor activity against human Olaparib-resistant MDA-MB-436 cells xenografted in BALB/c mouse assessed as tumor growth inhibition by measuring T/C ratio at 12.5 mg/kg,po QD for 27 days relative to control; type: functional; set-up: scale not given: the % may be the effect or the level left; settings: time 27 day
[32] = Toxicity in BALB/c mouse xenografted with human Olaparib-resistant MDA-MB-436 cells assessed as body weight at 12.5 to 25 mg/kg,po QD for 27 days; type: organism-based; settings: in vivo, 648 h, dose 12.5-25 mg/kg, time 27 day
CAPAN-1 [33] = experiment: Antitumor activity against human Talazoparib-resistant CAPAN-1 cells xenografted in BALB/c mouse assessed as tumor growth inhibition by measuring T/C ratio at 12.5 mg/kg,po QD for 21 days relative to control; type: functional; set-up: scale not given: the % may be the effect or the level left; settings: time 21 day
CAPAN-1 [34] = experiment: Antitumor activity against human Talazoparib-resistant CAPAN-1 cells xenografted in BALB/c mouse assessed as tumor growth inhibition by measuring T/C ratio at 25 mg/kg,po QD for 21 days relative to control; type: functional; set-up: scale not given: the % may be the effect or the level left; settings: time 21 day
[35] = target: Poly [ADP-ribose] polymerase tankyrase-1 (Homo sapiens, UniProt O95271)
CAPAN-1 [36] = settings: Homo sapiens, dose 10.0 nM, time 4.5 hrs
CAPAN-1 [37] = settings: Homo sapiens, dose 10.0 nM, time 4.5 hrs; remark: listed apart in the source
Mus musculus [38] = species: Mus musculus; settings: BALB/c, dose 12.5-25 mg/kg, route po, time 21.0 day
Mus musculus [39] = species: Mus musculus; settings: BALB/c, dose 12.5-25 mg/kg, route po, time 21.0 day; remark: listed apart in the source
Mus musculus [40] = species: Mus musculus; settings: BALB/c, dose 12.5-25 mg/kg, route po, time 21.0 day; remark: listed apart in the source

Sequence of Protein mono-ADP-ribosyltransferase PARP14 (Q460N5 whole entry): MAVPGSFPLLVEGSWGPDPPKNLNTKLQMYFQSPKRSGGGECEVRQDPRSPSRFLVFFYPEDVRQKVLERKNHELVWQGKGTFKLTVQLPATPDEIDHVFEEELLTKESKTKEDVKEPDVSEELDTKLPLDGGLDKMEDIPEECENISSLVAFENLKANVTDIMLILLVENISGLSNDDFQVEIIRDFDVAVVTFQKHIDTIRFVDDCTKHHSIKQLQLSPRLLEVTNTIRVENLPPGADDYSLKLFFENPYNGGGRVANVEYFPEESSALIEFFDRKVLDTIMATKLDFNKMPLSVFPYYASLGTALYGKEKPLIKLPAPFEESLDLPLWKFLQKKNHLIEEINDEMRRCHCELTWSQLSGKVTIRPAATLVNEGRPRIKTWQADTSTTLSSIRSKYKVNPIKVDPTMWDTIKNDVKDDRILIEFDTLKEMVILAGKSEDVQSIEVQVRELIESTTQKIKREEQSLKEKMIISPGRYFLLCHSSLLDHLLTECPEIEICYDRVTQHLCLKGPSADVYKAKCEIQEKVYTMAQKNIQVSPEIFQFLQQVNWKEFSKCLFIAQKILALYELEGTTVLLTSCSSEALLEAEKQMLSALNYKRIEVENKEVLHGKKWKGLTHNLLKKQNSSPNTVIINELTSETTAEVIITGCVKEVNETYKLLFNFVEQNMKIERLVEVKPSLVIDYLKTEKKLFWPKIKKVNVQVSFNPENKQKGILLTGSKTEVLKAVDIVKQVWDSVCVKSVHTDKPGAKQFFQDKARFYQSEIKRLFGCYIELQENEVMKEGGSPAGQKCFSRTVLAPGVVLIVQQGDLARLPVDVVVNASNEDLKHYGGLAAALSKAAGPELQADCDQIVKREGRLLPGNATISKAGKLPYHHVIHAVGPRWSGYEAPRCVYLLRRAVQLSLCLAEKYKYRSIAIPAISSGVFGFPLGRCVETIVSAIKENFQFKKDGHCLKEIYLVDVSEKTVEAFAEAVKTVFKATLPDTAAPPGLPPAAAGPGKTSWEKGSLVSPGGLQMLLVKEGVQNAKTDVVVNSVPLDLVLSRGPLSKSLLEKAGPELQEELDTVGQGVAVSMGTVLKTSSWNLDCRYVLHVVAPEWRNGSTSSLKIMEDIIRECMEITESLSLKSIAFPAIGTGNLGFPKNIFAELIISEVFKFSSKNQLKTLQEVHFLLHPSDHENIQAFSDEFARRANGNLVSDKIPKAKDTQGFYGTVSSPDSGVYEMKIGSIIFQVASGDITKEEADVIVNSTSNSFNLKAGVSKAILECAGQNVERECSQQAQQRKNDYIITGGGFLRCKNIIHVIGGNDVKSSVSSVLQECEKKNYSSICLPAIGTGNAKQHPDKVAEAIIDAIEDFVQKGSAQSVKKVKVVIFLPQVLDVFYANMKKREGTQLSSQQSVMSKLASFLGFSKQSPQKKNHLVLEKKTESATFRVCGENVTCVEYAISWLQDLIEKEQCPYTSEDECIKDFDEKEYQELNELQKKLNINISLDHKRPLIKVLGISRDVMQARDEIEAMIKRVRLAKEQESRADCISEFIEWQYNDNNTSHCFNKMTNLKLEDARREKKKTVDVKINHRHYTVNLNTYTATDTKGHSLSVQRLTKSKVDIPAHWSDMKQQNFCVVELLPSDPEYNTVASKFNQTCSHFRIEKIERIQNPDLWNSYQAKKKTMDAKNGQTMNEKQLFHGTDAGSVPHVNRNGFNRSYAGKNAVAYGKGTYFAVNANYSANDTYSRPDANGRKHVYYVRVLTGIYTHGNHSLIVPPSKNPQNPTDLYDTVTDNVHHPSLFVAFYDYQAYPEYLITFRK
Sequence of Protein mono-ADP-ribosyltransferase PARP11 (Q9NR21 whole entry): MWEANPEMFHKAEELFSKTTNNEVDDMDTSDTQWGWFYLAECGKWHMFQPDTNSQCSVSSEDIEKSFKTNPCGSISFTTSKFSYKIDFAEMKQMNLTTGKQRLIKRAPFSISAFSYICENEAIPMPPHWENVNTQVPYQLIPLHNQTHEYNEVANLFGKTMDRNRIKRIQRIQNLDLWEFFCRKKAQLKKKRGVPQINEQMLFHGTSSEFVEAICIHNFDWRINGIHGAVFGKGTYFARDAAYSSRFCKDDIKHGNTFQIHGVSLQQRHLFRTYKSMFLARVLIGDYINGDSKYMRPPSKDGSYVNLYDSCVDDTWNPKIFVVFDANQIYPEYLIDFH
Sequence of Protein mono-ADP-ribosyltransferase PARP6 (Q2NL67 whole entry): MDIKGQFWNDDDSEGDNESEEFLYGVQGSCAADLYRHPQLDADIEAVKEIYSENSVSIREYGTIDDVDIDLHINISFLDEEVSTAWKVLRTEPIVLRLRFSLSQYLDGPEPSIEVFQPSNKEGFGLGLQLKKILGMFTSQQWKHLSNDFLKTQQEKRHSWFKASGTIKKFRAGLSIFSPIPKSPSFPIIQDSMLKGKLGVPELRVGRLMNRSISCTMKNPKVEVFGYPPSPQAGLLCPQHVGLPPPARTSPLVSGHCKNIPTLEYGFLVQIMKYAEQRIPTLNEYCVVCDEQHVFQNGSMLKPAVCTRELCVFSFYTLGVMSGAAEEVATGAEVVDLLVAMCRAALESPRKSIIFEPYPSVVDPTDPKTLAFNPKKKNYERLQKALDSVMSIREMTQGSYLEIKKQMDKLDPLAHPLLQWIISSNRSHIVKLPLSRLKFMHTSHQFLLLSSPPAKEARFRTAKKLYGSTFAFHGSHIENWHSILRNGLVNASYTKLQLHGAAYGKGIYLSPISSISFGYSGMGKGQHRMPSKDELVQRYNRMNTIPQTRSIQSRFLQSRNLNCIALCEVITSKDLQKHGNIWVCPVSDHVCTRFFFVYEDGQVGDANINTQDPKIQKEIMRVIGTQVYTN
Sequence of Protein mono-ADP-ribosyltransferase PARP10 (Q53GL7 whole entry): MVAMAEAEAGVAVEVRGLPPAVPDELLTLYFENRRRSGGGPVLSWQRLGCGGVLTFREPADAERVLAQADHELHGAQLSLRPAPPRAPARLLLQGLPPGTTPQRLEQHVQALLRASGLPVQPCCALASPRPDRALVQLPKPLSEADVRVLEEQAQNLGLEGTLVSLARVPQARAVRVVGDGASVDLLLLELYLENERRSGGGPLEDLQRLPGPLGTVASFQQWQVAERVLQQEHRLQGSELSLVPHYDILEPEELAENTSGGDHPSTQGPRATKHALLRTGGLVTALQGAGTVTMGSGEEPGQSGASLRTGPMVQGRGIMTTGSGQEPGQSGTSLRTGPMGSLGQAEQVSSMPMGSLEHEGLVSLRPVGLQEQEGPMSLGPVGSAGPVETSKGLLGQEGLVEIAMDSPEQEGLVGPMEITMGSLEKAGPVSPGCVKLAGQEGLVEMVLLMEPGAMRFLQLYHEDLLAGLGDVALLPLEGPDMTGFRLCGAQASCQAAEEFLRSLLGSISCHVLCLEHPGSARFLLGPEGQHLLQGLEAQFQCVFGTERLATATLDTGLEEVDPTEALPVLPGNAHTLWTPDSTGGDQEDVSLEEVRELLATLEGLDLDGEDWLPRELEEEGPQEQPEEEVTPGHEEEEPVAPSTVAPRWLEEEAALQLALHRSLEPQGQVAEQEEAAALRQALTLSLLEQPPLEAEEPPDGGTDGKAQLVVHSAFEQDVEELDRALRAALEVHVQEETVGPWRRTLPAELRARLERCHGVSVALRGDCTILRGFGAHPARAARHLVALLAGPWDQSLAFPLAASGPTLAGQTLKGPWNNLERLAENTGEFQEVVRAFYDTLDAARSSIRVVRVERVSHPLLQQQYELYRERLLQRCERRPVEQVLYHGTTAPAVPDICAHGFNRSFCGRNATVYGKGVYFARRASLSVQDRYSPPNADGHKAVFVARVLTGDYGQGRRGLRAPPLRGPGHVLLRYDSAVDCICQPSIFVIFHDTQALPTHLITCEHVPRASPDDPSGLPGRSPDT
Sequence of Poly [ADP-ribose] polymerase 2 (Q9UGN5 whole entry): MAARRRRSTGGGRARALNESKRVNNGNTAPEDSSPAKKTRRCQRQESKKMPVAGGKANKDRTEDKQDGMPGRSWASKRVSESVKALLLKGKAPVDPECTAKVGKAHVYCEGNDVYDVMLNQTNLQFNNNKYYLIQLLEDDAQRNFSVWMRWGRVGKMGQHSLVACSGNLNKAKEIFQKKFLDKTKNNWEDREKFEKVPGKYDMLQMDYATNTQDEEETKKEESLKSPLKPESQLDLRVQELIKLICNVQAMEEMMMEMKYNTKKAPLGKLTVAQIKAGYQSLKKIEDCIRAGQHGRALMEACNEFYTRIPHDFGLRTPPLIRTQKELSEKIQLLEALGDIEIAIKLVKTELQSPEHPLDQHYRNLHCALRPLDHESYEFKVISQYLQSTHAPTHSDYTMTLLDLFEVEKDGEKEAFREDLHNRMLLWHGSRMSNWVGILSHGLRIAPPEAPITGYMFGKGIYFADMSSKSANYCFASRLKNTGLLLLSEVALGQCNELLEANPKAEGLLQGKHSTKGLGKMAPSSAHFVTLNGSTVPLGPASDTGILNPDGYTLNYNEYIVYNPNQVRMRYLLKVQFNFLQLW
Sequence of Protein mono-ADP-ribosyltransferase PARP15 (Q460N3 whole entry): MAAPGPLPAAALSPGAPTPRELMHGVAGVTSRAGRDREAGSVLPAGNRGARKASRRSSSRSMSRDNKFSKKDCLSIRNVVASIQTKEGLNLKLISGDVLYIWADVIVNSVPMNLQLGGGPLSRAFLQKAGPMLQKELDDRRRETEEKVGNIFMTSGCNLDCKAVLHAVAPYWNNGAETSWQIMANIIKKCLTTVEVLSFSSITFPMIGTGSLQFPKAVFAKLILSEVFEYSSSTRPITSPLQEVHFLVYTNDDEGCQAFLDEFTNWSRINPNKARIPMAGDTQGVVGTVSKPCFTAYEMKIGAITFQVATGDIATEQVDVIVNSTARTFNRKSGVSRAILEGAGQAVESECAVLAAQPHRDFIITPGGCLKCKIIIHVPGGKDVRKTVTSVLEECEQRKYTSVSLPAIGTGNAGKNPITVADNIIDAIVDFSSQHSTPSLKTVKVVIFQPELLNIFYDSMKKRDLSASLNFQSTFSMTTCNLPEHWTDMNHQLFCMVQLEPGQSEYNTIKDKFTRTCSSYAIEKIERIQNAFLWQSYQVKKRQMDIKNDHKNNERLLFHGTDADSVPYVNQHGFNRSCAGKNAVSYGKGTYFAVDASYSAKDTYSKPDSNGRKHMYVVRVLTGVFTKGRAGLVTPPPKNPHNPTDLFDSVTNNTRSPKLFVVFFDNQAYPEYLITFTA

## O=C(c1cc(Cc2n[nH]c(=O)c3ccccc23)ccc1F)N1CCn2c(nnc2-c2ccc(Br)o2)C1
[1]
  clearance: 24.5 mL/min/kg
[2]
  Activity: 15.29%
[3]
  IC50: < 0.001 nM
[4]
  IC50: 1.97 nM
CAPAN-1 [5]
  IC50: 0.1 nM
[6]
  IC50: 0.89 nM
CAPAN-1 [7]
  IC50: 1.13 nM
[8]
  EC50: 5.55 nM
[9]
  IC50: 0.001 nM
[10]
  IC50: 1.1 nM
[11]
  IC50: 1 nM
[12]
  IC50: 12.4 nM
[13]
  IC50: 9.5 nM
[14]
  IC50: 7.3 nM
[15]
  IC50: 10.8 nM
[16]
  IC50: 2170 nM
[17]
  IC50: 14.1 nM
[18]
  IC50: 35900 nM
[19]
  IC50: 51600 nM
HCC1937
  IC50: 4.54 nM
HCT-15
  IC50: 44.2 nM
MDA-MB-436
  IC50: 0.52 nM
[20]
  IC50: 0.02 nM
[21]
  IC50: 0.34 nM
[22]
  IC50: 1.19 nM
V79
  IC50: 29.3 nM
IMR-90
  IC50: 1240 nM
WI-38
  IC50: 530 nM
[23]
  Ratio IC50: 17
[24]
  Ratio IC50: 25
[25]
  IC50: 1.97 nM
[26]
  IC50: 1.97 nM
U-251
  IC50: 1.97 nM
[27]
  Ratio IC50: 19
U2OS [28]
  inhibition (INH): 95%
U2OS [29]
  inhibition (INH): 50%
[30]
  half-life: 3.25 h
[31]
  Activity: 36.74%
[32]
  Activity: Non-Toxic
CAPAN-1 [33]
  Activity: 48.92%
CAPAN-1 [34]
  Activity: 13.87%
[35]
  IC50: 3.8 nM
CAPAN-1 [36]
  inhibition: Active
CAPAN-1 [37]
  inhibition: Active
Mus musculus [38]
  inhibition: Active
Mus musculus [39]
  inhibition: Active
Mus musculus [40]
  inhibition: Active
